Common to all, as to assay: growth of human tumour cells (NCI), 48 h
Assay [1] deals with DMS-273.
The test system of assay [2] is XF498.
In assay [3] the test system is KM-20L2.
In assay [4] the test system is M19-MEL.
The subject of assay [5] is DLD-1.
Assay [6] concerns SNB-78.
The test system of assay [7] is RXF 631.
The test system of assay [8] is LXFL 529.
Assay [9] concerns HOP-18.

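Values below derive from 48-hour exposures of cells grown in 96-well plates, with endpoints linearly interpolated between the two concentrations bracketing the appropriate inhibition level. GI50: concentration for 50% inhibition of growth.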 Active and inactive are the calls of the source. No stated cut-off is given here; in the data, active = GI50 up to about 1.1 µM and inactive = higher.

With `COc1ccc2c(c1)c1ccc3c(c1n2C)C(=O)C=CC3=O`, the GI50 in assay [1] was 24.3 µM (inactive); in [2], 17.2 µM (inactive); in assay [3], 38.5 µM (inactive); in [4], 25.4 µM (inactive); in assay [5], 7.4 µM (inactive); in assay [6] it was 20.9 µM (inactive). The values for the GI50 in assay [7], in [8] and in [9] were 20 µM (inactive), 14.1 µM (inactive) and 12.2 µM (inactive), respectively.

For `COc1ccc(/C=C2\CCCCC2=O)cc1`, the GI50 in [1], in assay [2], in assay [3], in assay [4], in assay [5] and in assay [6] was > 100 µM (inactive) each time. In addition, the GI50 in assay [8] and in [9] was > 100 µM (inactive) each time.

In the case of `O=C1/C(=C/c2ccccc2)CN(C(=O)Oc2ccc([N+](=O)[O-])cc2)C/C1=C\c1ccccc1`, the GI50 in assay [1] was 0.883 µM (active); in assay [2] it was > 10 µM (inactive); in [3] it was 4.69 µM (inactive); in [4], 1.77 µM (inactive); in [5], 1.79 µM (inactive); in assay [6], 5.16 µM (inactive). Also, the GI50 was 2.02 µM (inactive) in assay [8] and > 10 µM (inactive) in assay [9].

Regarding `O=c1[nH]c2cc([N+](=O)[O-])ccc2nc1/C(=N/Nc1ccccc1)C(O)c1ccccc1Cl` (stereo not given), the GI50 is 34.8 µM (inactive) in [1]; > 100 µM (inactive) in assay [2]; 14.9 µM (inactive) in [3]; 52.8 µM (inactive) in [4]; > 100 µM (inactive) in [5]; > 100 µM (inactive) in assay [6]. Moreover, the GI50 in assay [8] was 28.1 µM (inactive).

On to `C=CCn1c(=S)sc2c(C(=O)OCC)c3c(C)cc(C)cn3c2c1=O`, for which the GI50 in assay [1], in assay [3], in assay [4], in assay [5], in [6] and in [8] was > 100 µM (inactive) in each case.

For `COc1ccccc1NC(=O)C(CC(C(=O)Nc1ccccc1OC)/C(C)=N/NC(=O)c1ccccc1O)/C(C)=N/NC(=O)c1ccccc1O` (stereo not given), the GI50 in assay [1] was > 100 µM (inactive); in assay [2], > 100 µM (inactive); in assay [3], > 100 µM (inactive); in assay [4] it was > 100 µM (inactive); in assay [5], 57.5 µM (inactive); in assay [6], > 100 µM (inactive). Besides, the GI50 in [7] was 69.8 µM (inactive); in assay [8], 66.4 µM (inactive).

In the case of `CC(=O)N1CCc2[nH]c3ccccc3c2CC1`, the GI50 in [1], in [2], in assay [3], in [4], in assay [5] and in assay [6] was > 100 µM (inactive) each time. Besides, the GI50 in [7] was > 100 µM (inactive); in assay [8], > 100 µM (inactive); in [9] it was 86.9 µM (inactive).

With `O=[N+]([O-])c1ccc(-c2ccc(/C=N/n3c(S)nnc3-c3ccc(Cl)cc3)o2)cc1`, the GI50 is 22.9 µM (inactive) in assay [1]; 19.5 µM (inactive) in assay [2]; 28 µM (inactive) in assay [3]; 21.1 µM (inactive) in assay [4]; 41.6 µM (inactive) in [5]; > 50.6 µM (inactive) in assay [6]. Besides, the GI50 was > 37.4 µM (inactive) in assay [7], 22.5 µM (inactive) in assay [8] and > 100 µM (inactive) in assay [9].

Consider `Cc1cc(CC(O)c2ccc(Cl)c(Cl)c2)nc(O)n1` (stereo not given), for which the GI50 in assay [2] is 18.4 µM (inactive); in assay [3], 51.1 µM (inactive); in assay [4] it was 58.6 µM (inactive); in assay [5] it was 18.7 µM (inactive); in assay [6] it was 76.2 µM (inactive); in assay [8], 20.9 µM (inactive).

In the case of `Cc1ccc(Nc2nc(-c3ccc(-c4ccc([N+](=O)[O-])cc4)o3)cs2)cc1`, the GI50 is 42.6 µM (inactive) in [1]; 29.6 µM (inactive) in assay [3]; 51.2 µM (inactive) in [4]; 41.4 µM (inactive) in assay [5]; 66.5 µM (inactive) in [6]; 29.3 µM (inactive) in assay [8].

Take `Cc1nc(Nc2ccc(Cl)c(Cl)c2)sc1C(/C=C/c1ccc2c(c1)OCO2)=N/Nc1ccc([N+](=O)[O-])cc1[N+](=O)[O-]`: the GI50 in [1] was 32 µM (inactive); in assay [2] it was 13.9 µM (inactive); in [3], > 100 µM (inactive); in assay [4], > 100 µM (inactive); in assay [5], > 100 µM (inactive); in assay [6], 2.27 µM (inactive). Besides, the GI50 in [8] was > 68.5 µM (inactive).

For the compound `Cc1cc(N(CCC#N)CCC#N)ccc1/C=C/C(=O)Nc1cccc(Cl)c1`, the GI50 in assay [1] is > 100 µM (inactive); in [2], > 100 µM (inactive); in assay [3], 87.1 µM (inactive); in assay [4], > 100 µM (inactive); in assay [5] it was > 100 µM (inactive); in assay [7] it was > 100 µM (inactive). Also, the GI50 in assay [8] is 29.7 µM (inactive).

Regarding `CCCCCCn1c(SCC)c2ccccc2c1-c1nc(F)nc(F)n1`, the GI50 in assay [1], in assay [2], in [3], in assay [4], in [5] and in assay [6] was > 100 µM (inactive) in each case. Also, the GI50 in assay [8] was > 100 µM (inactive).

Turning to `C/C(CC(=O)Nc1cc(C)ccc1C)=N/N=C(N)N`, the GI50 in [1], in assay [2], in assay [3], in [4], in assay [5] and in assay [6] was > 100 µM (inactive) each time. The GI50 in [8] is > 100 µM (inactive).

Turning to `O=C(O)C#CCO`, the GI50 in assay [1], in [2], in [4], in assay [6], in assay [7] and in [8] was > 100 µM (inactive) in each case.

As to `N=C(N)NS(=O)(=O)c1ccc(NC(=O)c2cccc3c(Nc4ccc(S(=O)(=O)N=C(N)N)cc4)c4ccc(Cl)cc4nc23)cc1`, the GI50 was > 100 µM (inactive) in [1]; 67.3 µM (inactive) in [2]; 74.8 µM (inactive) in assay [3]; 67.1 µM (inactive) in assay [5]; 81.3 µM (inactive) in assay [6]; 33 µM (inactive) in assay [8]. Besides, the GI50 in assay [9] was > 100 µM (inactive).

Turning to `CC(Cn1c2c3ccccc3ccc2c2oc(=O)c3ccccc3c21)N(C)C` (stereo not given), the GI50 in [2], in assay [3], in assay [5], in assay [6] and in assay [8] was > 100 µM (inactive) throughout.

As to `CCC(/C=C/C1OC(=O)C=CC1C)=C\C(C)C/C=C/C(C)=C/C(C)C(=O)C(C)C(O)C(C)C/C(C)=C/C(=O)O` (stereo not given), the GI50 in assay [1] is 1.1 µM (active); in assay [3] it was 4.13 µM (inactive); in assay [4] it was 1.16 µM (inactive); in [5], 1.43 µM (inactive); in [6], 3.21 µM (inactive); in [9], 6.04 µM (inactive).

`O=C1C(Br)=CC2(C=C1Br)CCNC1=C2C(=O)c2ccccc2C1=O`: the GI50 is 7.41 µM (inactive) in assay [3]; 4.66 µM (inactive) in assay [4]; 9.25 µM (inactive) in assay [5]; 11.2 µM (inactive) in [6]; 5.69 µM (inactive) in assay [7]; 5.37 µM (inactive) in assay [8]. The GI50 in [9] is 32.2 µM (inactive).

With `Nc1ncnc2c1ncn2CCCC(c1ccccc1)P(=O)(O)O` (stereo not given), the GI50 in assay [1], in [2], in assay [3], in assay [4], in assay [5] and in assay [6] was > 100 µM (inactive) throughout. Also, in [8], the GI50 is > 100 µM (inactive).

Regarding `O=S(O)CCCSSCCCCSSCCCS(=O)O`, the GI50 in [1], in assay [2], in assay [3], in assay [4], in assay [5] and in [6] was > 100 µM (inactive) in each case. Also, the GI50 in assay [8] and in assay [9] was > 100 µM (inactive) throughout.

As for `CC1(C)CC[C@]2(C(=O)O)CCC3(C)C(=CCC4[C@@]5(C)CC[C@H](OC6OCC(O)C(O)C6OC6OC(CO)C(O)C(O)C6O)C(C)(C)C5CC[C@]43C)C2C1` (stereo not given in full), the GI50 in assay [1] was 2.06 µM (inactive); in [2] it was 1.94 µM (inactive); in assay [3] it was 2.02 µM (inactive); in [4], 1.83 µM (inactive); in assay [5], 8.61 µM (inactive); in assay [6], 2.76 µM (inactive). For the same compound, the GI50 in assay [7] is 1.74 µM (inactive); in assay [8], 1.9 µM (inactive); in assay [9], 1.95 µM (inactive).

For the compound `COc1ccc2c(=O)c(-c3cc(OC)c(OC)cc3OC)coc2c1`, the GI50 is 1.85 µM (inactive) in [1]; 2.58 µM (inactive) in [2]; 2.05 µM (inactive) in assay [3]; 4.15 µM (inactive) in assay [4]; 3.95 µM (inactive) in assay [5]; 4.21 µM (inactive) in [6]. Moreover, the GI50 was 5.4 µM (inactive) in assay [7] and 6.27 µM (inactive) in [8].

Turning to `CSc1ccc2c(cc1=O)[C@@H](NC(=O)c1ccc(F)cc1)CCc1cc(O)c(O)c(O)c1-2`, the GI50 in assay [1], in assay [3], in assay [4], in [5], in assay [6] and in assay [7] was > 100 µM (inactive) in each case. Also, the GI50 in assay [8] and in assay [9] was > 100 µM (inactive) in each case.

For the origin of these results see ChEMBL document CHEMBL1201862, “PubChem BioAssay data set” (2004).
